Data published in patent US12459951B2, “Compounds that interact with RAS superfamily proteins for treatment of cancers, inflammatory diseases, rasopathies, and fibrotic disease” (SHY Therapeutics, LLC, priority 2022, dated 2025).

Assays:
[1] = tested on: Akt phosphorylation; assay: Akt Phosphorylation Assay (western blot), Panc-1; assay type: cell-based, human; settings: at 10 μM, * = activation
Outline: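 Panc-1 (KRas G12D) cells were treated with compound at 10 μM final (0.3% DMSO) for 6 h at 37 °C, or with serial dilutions for IC50. Cells were either serum-starved overnight in 0.5% FBS and then stimulated with 1.5 ng/ml EGF for 15 min, or kept in 10% FBS without stimulation. Akt Ser473 phosphorylation in lysates was read by western blot.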

[2] = tested on: Erk1/2 phosphorylation; assay: Erk1/2 Phosphorylation Assay (western blot), Panc-1; assay type: cell-based, human; settings: at 10 μM, * = activation
Outline: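 KRas G12D Panc-1 cells were treated 6 h at 37° C with compound at 10 μM or serial dilutions for IC50 (0.3% DMSO). In method 1, cells were serum-starved overnight (0.5% FBS) and then given 1.5 ng/ml EGF for 15 min. In method 2, cells stayed in 10% FBS without stimulation. Lysate phospho-Erk1/2 (Thr202/Tyr204) was read by western blot.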

[3] = tested on: TNF-alpha; assay: TNF-alpha Quantification Assay (ELISA), LPS-stimulated RAW 264.7; assay type: cell-based; settings: Mus musculus, RAW264.7; at 10 μM; read-out: TNFα: % inh.
[4] = tested on: IL6; assay: IL-6 Quantification Assay (ELISA), LPS-stimulated RAW 264.7; assay type: cell-based; design: inhibition: dose or concentration left out as unconfirmed; settings: Mus musculus, RAW264.7; read-out: IL-6: % inh.

Row | SMILES | % inh of Akt phosphorylation in Panc-1 [1] | % inh of Erk1/2 phosphorylation in Panc-1 [2] | inhibition at 10 µM [3] | inhibition [4]
1 | Cc1c(-c2ccn(C3CC3)n2)cn2nc(-c3nccn3C)nc(Nc3cc(OCC(F)(F)F)ccn3)c12 [Compound 140, 6-(1-Cyclopropyl-1H-pyrazol-3-yl)-5-methyl-2-(1-methyl-1H-imidazol-2-yl)-N-(4-(2,2,2-trifluoroethoxy)pyridin-2-yl)pyrrolo[2,1-f][1,2,4]triazin-4-amine] | D* (85-100% activation) | D* (85-100% activation) | 0% | 50 to 74%
2 | COc1cnc(Nc2nc(-c3nccn3C)nn3cc(-c4ccn(C)n4)c(C)c23)cn1 [Compound 110, N-(5-Methoxypyrazin-2-yl)-5-methyl-2-(1-methyl-1H-imidazol-2-yl)-6-(1-methyl-1H-pyrazol-3-yl)pyrrolo[2,1-f][1,2,4]triazin-4-amine] | C* (46-84% activation) | B* (26-49% activation) | 1 to 24% | 1 to 24%
3 | Cc1c(-c2ccn(C)n2)cn2nc(-c3nccn3C)nc(Nc3cn(C(C)C)nn3)c12 [Compound 109, N-(1-Isopropyl-1H-1,2,3-triazol-4-yl)-5-methyl-2-(1-methyl-1H-imidazol-2-yl)-6-(1-methyl-1H-pyrazol-3-yl)pyrrolo[2,1-f][1,2,4]triazin-4-amine] | D* (85-100% activation) | B* (26-49% activation) | 0% | 50 to 74%
4 | CO[C@H]1C[C@H](Nc2nc(-c3nccn3C)nn3cc(-c4cccnc4)c(-c4ccccn4)c23)C1 [Compound 168, N-((1r,3r)-3-Methoxycyclobutyl)-2-(1-methyl-1H-imidazol-2-yl)-5-(pyridin-2-yl)-6-(pyridin-3-yl)pyrrolo[2,1-f][1,2,4]triazin-4-amine] | 0 (0% inhibition) | 0 (0% inhibition) | 25 to 49% | 1 to 24%
5 | Cc1c(-c2ccn(C(C)C)n2)cn2nc(-c3nccn3C)nc(Nc3nccc(OCCO)n3)c12 [Compound 121, 2-((2-((6-(1-Isopropyl-1H-pyrazol-3-yl)-5-methyl-2-(1-methyl-1H-imidazol-2-yl)pyrrolo[2,1-f][1,2,4]triazin-4-yl)amino)pyrimidin-4-yl)oxy)ethan-1-ol] | B* (26-49% activation) | D* (85-100% activation) | 25 to 49% | 50 to 74%
6 | Cc1c(-c2ccn(C(C)C)n2)cn2nc(-c3nccn3C)nc(Nc3nccn3C)c12 [Compound 93, 6-(1-Isopropyl-1H-pyrazol-3-yl)-5-methyl-N,2-bis(1-methyl-1H-imidazol-2-yl)pyrrolo[2,1-f][1,2,4]triazin-4-amine] | D* (85-100% activation) | D (85-100% inhibition) | 75 to 100% | 75 to 100%
7 | COc1cc(-c2cn3nc(-c4nccn4C)nc(N[C@H]4C[C@H](OC)C4)c3c2C)ccn1 [Compound 160, N-((1r,3r)-3-Methoxycyclobutyl)-6-(2-methoxypyridin-4-yl)-5-methyl-2-(1-methyl-1H-imidazol-2-yl)pyrrolo[2,1-f][1,2,4]triazin-4-amine] | B* (26-49% activation) | A* (1-25% activation) | 25 to 49% | 75 to 100%
8 | Cc1c(-c2ccn(C3CC3)n2)cn2nc(-c3nccn3C)nc(Nc3cc(OCCCN(C)C)ccn3)c12 [Compound 148, 6-(1-Cyclopropyl-1H-pyrazol-3-yl)-N-(4-(3-(dimethylamino)propoxy)pyridin-2-yl)-5-methyl-2-(1-methyl-1H-imidazol-2-yl)pyrrolo[2,1-f][1,2,4]triazin-4-amine] | A (1-25% inhibition) | C* (46-84% activation) | 1 to 24% | 1 to 24%
9 | COCCO[C@H]1C[C@H](Nc2nc(-c3nccn3C)nn3cc(-c4ccn(C)n4)c(C)c23)C1 [Compound 130, N-((1r,3r)-3-(2-Methoxyethoxy)cyclobutyl)-5-methyl-2-(1-methyl-1H-imidazol-2-yl)-6-(1-methyl-1H-pyrazol-3-yl)pyrrolo[2,1-f][1,2,4]triazin-4-amine] | D* (85-100% activation) | B* (26-49% activation) | 1 to 24% | 0%
10 | COc1ccnc(Nc2nc(-c3nccn3C)nn3cc(-c4cccnc4)c(C)c23)n1 [Compound 158, N-(4-Methoxy-pyrimidin-2-yl)-5-methyl-2-(1-methyl-1H-imidazol-2-yl)-6-(pyridin-3-yl)pyrrolo[2,1-f][1,2,4]triazin-4-amine] | D* (85-100% activation) | A (1-25% inhibition) | 0% | 1 to 24%
11 | Cc1c(-c2ccn(C)n2)cn2nc(-c3nccn3C)nc(Nc3cc(OCCO)ncn3)c12 [Compound 101, 2-((6-((5-Methyl-2-(1-methyl-1H-imidazol-2-yl)-6-(1-methyl-1H-pyrazol-3-yl)pyrrolo[2,1-f][1,2,4]triazin-4-yl)amino)pyrimidin-4-yl)oxy) ethan-1-ol] | D* (85-100% activation) | A* (1-25% activation) | 0% | 50 to 74%
12 | CO[C@H]1C[C@@H](Nc2nc(-c3nccn3C)nn3cc(-c4ccn(C)n4)c(C)c23)C1 [Compound 131, N-((1s,3s)-3-Methoxycyclobutyl)-5-methyl-2-(1-methyl-1H-imidazol-2-yl)-6-(1-methyl-1H-pyrazol-3-yl)pyrrolo[2,1-f][1,2,4]triazin-4-amine] | A (1-25% inhibition) | A* (1-25% activation) | 1 to 24% | 0%
13 | Cc1c(-c2ccn(C(C)C)n2)cn2nc(-c3nccn3C)nc(Nc3ncc[nH]3)c12 [Compound 125, N-(1H-Imidazol-2-yl)-6-(1-isopropyl-1H-pyrazol-3-yl)-5-methyl-2-(1-methyl-1H-imidazol-2-yl)pyrrolo[2,1-f][1,2,4]triazin-4-amine] | D* (85-100% activation) | A (1-25% inhibition) | 1 to 24% | 50 to 74%
14 | COCCO[C@H]1C[C@H](Nc2nc(-c3nccn3C)nn3cc(-c4ccnc(OC)c4)c(C)c23)C1 [Compound 161, N-((1r,3r)-3-(2-Methoxy-ethoxy)cyclo-butyl)-6-(2-methoxy-pyridin-4-yl)-5-methyl-2-(1-methyl-1H-imidazol-2-yl)pyrrolo[2,1-f][1,2,4]triazin-4-amine] | A* (1-25% activation) | A (1-25% inhibition) | 50 to 74% | 75 to 100%
15 | Cc1c(-c2ccn(C3CC3)n2)cn2nc(-c3nccn3C)nc(O)c12 [Compound 134, 6-(1-Cyclopropyl-1H-pyrazol-3-yl)-5-methyl-2-(1-methyl-1H-imidazol-2-yl)pyrrolo[2,1-f][1,2,4]triazin-4-ol] | A (1-25% inhibition) | B (26-49% inhibition) | 1 to 24% | 1 to 24%
